pKi: −log10 of the molar value. Where two headings read alike, the source gives them in different places.
Experiments:
N2a neuroblastoma cells = assay: N2a cellular assay (neurite outgrowth); format: cell-based; conditions: for optimal concentration for enhancement of neurite outgrowth: U-shaped dose-dependency, N2a-cells
Procedure: At day one N2a cells were plated into 24-well plates with cover slips (pretreated with polylysine) at a density of 35,000 cells/well and cultured with DMEM (incl. FCS 10% and Pen/Strep 1%) for 24 h. Next, cells were transfected with 80 ng expression plasmids encoding Venus as well as 720 ng pRK5 (mock transfection) in a total volume of 500 μl starvation media containing different concentrations of compounds or DMSO for 36 h (media without FCS; induction of neurite outgrowth). Therefore media was removed and replaced by 400 μl DMEM (empty). Next an equivalent volume of plasmids were given to 50 μl OPTIMEM and incubated for 5 min at RT. Additionally 1.5 μl Lipofectamine 2000 was separately dissolved in 50 μl OPTIMEM. After 5 min both solutions (plasmids and Lipofactamine 2000 containing media) were combined and incubated again for another 20 min. After that 100 μl of this mixture was given to 400 μl media per well. (See also protocol of the provider—Life Technologies).
On the next day cells were washed with PBS and incubated for 30 min with 300 μl PFA (4%) and sucrose (5%) to fix cells. After fixation cells were washed three times, mounted onto microscope slides using 4 μl Vectashield (mounting media) and analyzed by fluorescence microscopy. Each bar represents the mean of the neurite length of 30-50 cells after the indicated treatment (FIGS. 1-2).

FKBP52 = target: T1, FKBP52 (Homo sapiens, UniProt Q02790); assay: Fluorescence polarization binding assay, FK1-domain of FKBP52WT with tracer F2 (selectivity FKBP51 vs. FKBP52); conditions: selectivity factor over FKBP52
T1 construct: Purified FK1-domains of FKBP51WT (4.5 nM) with F4 (3 nM), FKBP52WT (400 nM) with F2 (20 nM); implied by Ni-NTA purification) (N); made in house; host or cells: E. coli BL21(DE3)pLysS
T1 sequence (Q02790 50-138 limits assumed): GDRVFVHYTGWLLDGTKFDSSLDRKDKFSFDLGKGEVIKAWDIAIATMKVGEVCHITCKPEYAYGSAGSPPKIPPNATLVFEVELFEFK
Method in brief: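 Compounds titrated against FK1 domain of FKBP52 WT with fluorescent tracer F2, in duplicate; competition curves fitted to four-parameter logistic for IC50. Ki derived from exact competitive-binding equation using tracer Kd; selectivity expressed as Ki(FKBP51)/Ki(FKBP52).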

FKBP51 = target: T2, FKBP51 (Homo sapiens, UniProt Q13451); assay: Fluorescence polarization binding assay, FK1-domain of FKBP51WT with tracer F4; set-up: Purified FK1-domains of FKBP51WT (4.5 nM) with F4 (3 nM), FKBP52WT (400 nM) with F2 (20 nM); made in house; host or cells: E. coli BL21(DE3)pLysS; conditions: read-out: Affinity(Ki) for FKBP51
T2 sequence (Q13451 42-130 limits assumed): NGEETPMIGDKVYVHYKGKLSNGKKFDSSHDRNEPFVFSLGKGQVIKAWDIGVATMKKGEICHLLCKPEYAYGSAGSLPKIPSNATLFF
Method in brief: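 Competitive fluorescence polarization with tracer F4 and FKBP51 FK1 domain (wild type), compounds titrated by serial dilution from DMSO stock, run in duplicate. IC50 from four-parameter logistic fit; inhibition constants from an exact competitive-binding equation using tracer and inhibitor Kd values.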

[1] = FKBP52WT (400 nM) with F2 (20 nM), A series
[2] = FK1-domain of FKBP51WT (4.5 nM) with F4 (3 nM), A series

Ki(FKBP51)/Ki(FKBP52) (FKBP52; compounds B01-C25) | pKi (FKBP51; compounds B01-C25) | Ki(FKBP51)/Ki(FKBP52) (FKBP52; [1]) | pKi (FKBP51; [2]) | SMILES | further results
+++ (>500 +++) | 5.00 to 6.00 | – | – | COc1cc([C@@H](C(=O)N2CCCC[C@H]2C(=O)OC2CCCC2)C2CCCCC2)cc(OC)c1OC [Compound C13, (S)-cyclopentyl-1-((S)-2-cyclohexyl-2-(3,4,5-trimethoxyphenyl)acetyl)piperidine-2-carboxylate] | –
++ (>50 ++) | 4.30 to 5.00 | – | – | CC[C@H](C)OC(=O)[C@@H]1CCCCN1C(=O)[C@H](c1cc(OC)c(OC)c(OC)c1)C1CCCCC1 [Compound C07, (S)-(S)-sec-butyl-1-((S)-2-cyclohexyl-2-(3,4,5-trimethoxyphenyl)acetyl) piperidine-2-carboxylate] | –
+++ (>500 +++) | 5.00 to 6.00 | – | – | COc1cc([C@@H](C(=O)N2CCCC[C@H]2C(=O)NC(C)(C)CC(N)=O)C2CCCCC2)cc(OC)c1OC [Compound B25, (S)-N-(4-amino-2-methyl-4-oxobutan-2-yl)-1-((S)-2-cyclohexyl-2-(3,4,5-trimethoxyphenyl)acetyl)piperidine-2-carboxamide] | –
++ (>50 ++) | 5.00 to 6.00 | – | – | COc1cc([C@@H](C(=O)N2CCCC[C@H]2C(=O)NC2(C(N)=O)CCCCC2)C2CCCCC2)cc(OC)c1OC [Compound B31, (S)-N-(1-carbamoylcyclohexyl)-1-((S)-2-cyclohexyl-2-(3,4,5-trimethoxyphenyl)acetyl)piperidine-2-carboxamide] | –
++ (>50 ++) | 5.00 to 6.00 | – | – | COc1cc([C@@H](C(=O)N2CCCC[C@H]2C(=O)N[C@@H](CO)C(N)=O)C2CCCCC2)cc(OC)c1OC [Compound B22, (S)-N-((S)-1-amino-3-hydroxy-1-oxopropan-2-yl)-1-((S)-2-cyclohexyl-2-(3,4,5-trimethoxyphenyl)acetyl)piperidine-2-carboxamide] | –
++ (>50 ++) | 5.00 to 6.00 | – | – | COc1cc([C@@H](C(=O)N2CCCC[C@H]2C(=O)OCCOCc2ccccc2)C2CCCCC2)cc(OC)c1OC [Compound C19, (S)-2-(benzyloxy)ethyl-1-((S)-2-cyclohexyl-2-(3,4,5-trimethoxyphenyl)acetyl) piperidine-2-carboxylate] | –
+++ (>500 +++) | 5.00 to 6.00 | – | – | COc1cc([C@@H](C(=O)N2CCCC[C@H]2C(=O)NC2(C(=O)NCC(N)=O)CCCC2)C2CCCCC2)cc(OC)c1OC [Compound B33, (S)-N-(1-((2-amino-2-oxoethyl)carbamoyl)cyclopentyl)-1-((S)-2-cyclohexyl-2-(3,4,5-trimethoxyphenyl)acetyl)piperidine-2-carboxamide] | –
++ (>50 ++) | 5.00 to 6.00 | – | – | COc1cc([C@@H](C(=O)N2CCCC[C@H]2C(=O)N[C@@H](CC(C)C)C(N)=O)C2CCCCC2)cc(OC)c1OC [Compound B30, (S)-N-((S)-1-amino-4-methyl-1-oxopentan-2-yl)-1-((S)-2-cyclohexyl-2-(3,4,5-trimethoxyphenyl)acetyl)piperidine-2-carboxamide] | –
++ (>50 ++) | 4.30 to 5.00 | – | – | C=CCOC(=O)[C@@H]1CCCCN1C(=O)[C@H](c1cc(OC)c(OC)c(OC)c1)C1CCCCC1 [Compound C17, (S)-allyl-1-((S)-2-cyclohexyl-2-(3,4,5-trimethoxyphenyl)acetyl)piperidine-2-carboxylate] | –
+++ (>500 +++) | 6.00 to 7.00 | – | – | COc1cc([C@@H](C(=O)N2CCCC[C@H]2C(=O)OC(C)C)C2CCCCC2)cc(OC)c1OC [Compound C04, (S)-isopropyl 1-((S)-2-cyclohexyl-2-(3,4,5-trimethoxyphenyl)acetyl)piperidine-2-carboxylate] | –
++ (>50 ++) | 5.00 to 6.00 | – | – | COc1cc([C@@H](C(=O)N2CCCC[C@H]2C(=O)N[C@H](C(N)=O)C2CCCCC2)C2CCCCC2)cc(OC)c1OC [Compound B18, (S)-N-((S)-2-amino-1-cyclohexyl-2-oxoethyl)-1-((S)-2-cyclohexyl-2-(3,4,5-trimethoxyphenyl)acetyl)piperidine-2-carboxamide] | –

The remaining lines, values behind:

SMILES | Ki(FKBP51)/Ki(FKBP52) (FKBP52; compounds B01-C25) | pKi (FKBP51; compounds B01-C25) | Ki(FKBP51)/Ki(FKBP52) (FKBP52; [1]) | pKi (FKBP51; [2]) | further results
CC#C[C@]1(O)CC[C@H]2[C@@H]3C=CC4=CC(=O)C=C[C@]4(C)[C@H]3[C@@H](O)C[C@@]21C [Ru26988, RU26988, reference compound] | – | – | – | – | optimal concentration for enhancement of neurite outgrowth (N2a neuroblastoma cells): 100 nM
C=CC[C@@H]1/C=C(\C)C[C@H](C)C[C@H](OC)[C@H]2O[C@@](O)(C(=O)C(=O)N3CCCC[C@H]3C(=O)O[C@H](/C(C)=C/[C@@H]3CC[C@@H](O)[C@H](OC)C3)[C@H](C)[C@@H](O)CC1=O)[C@H](C)C[C@@H]2OC [FK506, reference compound] | – | – | – | – | concentrations at which the neurite outgrowth stimulating effect is lost (N2a neuroblastoma cells; FIG. 1B): 300 to 1000 nM
C=CC[C@H](C(=O)N1CCCC[C@H]1C(=O)N[C@H](CCc1ccc(OC)c(OC)c1)c1cccc(OCCN2CCOCC2)c1)c1cc(OC)c(OC)c(OC)c1 [Compound A05, (S)-N-((R)-3-(3,4-dimethoxyphenyl)-1-(3-(2-morpholinoethoxy)phenyl)propyl)-1-((S)-2-(3,4,5-trimethoxyphenyl)pent-4-enoyl)piperidine-2-carboxamide] | – | – | + (>5 +) | 5.00 to 6.00 | –
COc1ccc(CCC(OC(=O)[C@@H]2CCCCN2C(=O)C(NC(=O)c2ccccn2)C2CCCCC2)c2cccc(OCC(=O)O)c2)cc1OC (stereo partly drawn) [Compound A25, 2-(3-(1-(((2S)-1-(2-cyclohexyl-2-(picolinamido)acetyl)piperidine-2-carbonyl)oxy)-3-(3,4-dimethoxyphenyl)propyl)phenoxy) acetic acid] | – | – | + (>5 +) | 4.30 to 5.00 | –
COc1ccc(CC[C@@H](OC(=O)[C@@H]2CCCCN2C(=O)[C@H](c2cc(OC)c(OC)c(OC)c2)[C@@H]2C=CCCC2)c2cccc(OCC(=O)O)c2)cc1OC [Compound A11, 2-(3-((R)-1-(((S)-1-((S)-2-((S)-Cyclohex-2-en-1-yl)-2-(3,4,5-trimethoxyphenyl)acetyl)piperidine-2-carbonyl)oxy)-3-(3,4-dimethoxyphenyl)propyl)phenoxy) acetic acid] | – | – | +++ (>500 +++) | > 7.00 | –
COc1ccc(CCC(NC(=O)[C@@H]2CCCCN2C(=O)[C@H](c2cc(OC)c(OC)c(OC)c2)[C@@H]2C=CCCC2)c2cccc(OCC(=O)O)c2)cc1OC (stereo partly drawn) [Compound A16, 2-(3-((R)-1-((S)-1-((S)-2-((R)-Cyclohex-2-en-1-yl)-2-(3,4,5-trimethoxyphenyl)acetyl)piper-idine-2-carboxamido)-3-(3,4-dimethoxyphenyl)propyl)phenoxy) acetic acid] | – | – | ++ (>50 ++) | 6.00 to 7.00 | –
COc1ccc(CCC(OC(=O)[C@@H]2CCCCN2C(=O)C(NC(=O)c2cc(Cl)cc(Cl)c2)C2CCCCC2)c2cccc(OCC(=O)O)c2)cc1OC (stereo partly drawn) [Compound A28, 2-(3-(1-(((2S)-1-(2-cyclohexyl-2-(3,5-dichlorobenzamido)acetyl)piperidine-2-carbonyl)oxy)-3-(3,4-dimethoxyphenyl)propyl)phenoxy)acetic acid] | – | – | + (>5 +) | 4.30 to 5.00 | –
COc1ccc(OCCOC(=O)[C@@H]2CCCCN2C(=O)[C@H](c2cc(OC)c(OC)c(OC)c2)C2CCCCC2)cc1OC [Compound A20, (S)-2-(3,4-dimethoxyphenoxy)ethyl-1-((S)-2-cyclohexyl-2-(3,4,5-trimethoxyphenyl)acetyl)piperidine-2-carboxylate] | – | – | ++ (>50 ++) | 6.00 to 7.00 | –
C[C@]12CCC(=O)C=C1CC[C@@H]1[C@@H]2[C@@H](O)C[C@]2(C=O)[C@@H](C(=O)CO)CC[C@@H]12 [Aldosterone, reference compound] | – | – | – | – | optimal concentration for enhancement of neurite outgrowth (N2a neuroblastoma cells): 100 nM
C=CC[C@H](C(=O)N1CCCC[C@H]1C(=O)OC(CCCc1cccnc1)CCCc1cccnc1)c1cc(OC)c(OC)c(OC)c1 [Compound A04, (S)-1,7-di(pyridin-3-yl)heptan-4-yl 1-((S)-2-(3,4,5-trimethoxyphenyl)pent-4-enoyl)piperidine-2-carboxylate] | – | – | + (>5 +) | 4.30 to 5.00 | –

Reference: patent publication US9845292B2 (Max-Planck-Gesellschaft zur Förderung der Wissenschaften …, priority 2013, dated 2017)
